Measured values reported in patent publication US20210388337A1, “PROTEIN-POLYMER CONJUGATES AND METHODS FOR THEIR PREPARATION” (Carnegie Mellon University, priority 2018, published 2021).

Assays:
[1] = Hydrodynamic diameter by dynamic light scattering; type: physicochemical; settings: DLS; for substrate size (Dh): biotinylated substrates, text and FIG. 10 legend
Method: Measuring conjugate hydrodynamic diameter: The DLS data was collected on a Malvern Zetasizer nano-ZS. Native avidin and avidin conjugates ([…]) were dissolved in 0.1 M sodium phosphate, pH 8. The hydrodynamic diameter (Dh) of the samples was measured three times (12 runs/measurement). Reported values are number distribution intensities.
Instrumentation and Sample Analysis Preparations: ^1H and ^13C NMR were recorded on a spectrometer (300 MHz, 75 MHz, Bruker Avance™ 300), with deuterium oxide (D2O), DMSO-d6, and CDCl3. Routine FT-IR spectra were obtained with a Nicolet Magna-IR 560 spectrometer (Thermo). UV-VIS spectra were obtained and used for protein concentration determination using a UV-VIS spectrometer (Lambda 2, PerkinElmer). Melting points (mp) were measured with a Laboratory Devices Mel-Temp. Number and weight average molecular weights (Mn and Mw) and the polydispersity index (Mw/Mn) were estimated by gel permeation chromatography (GPC) on a Water 2695 Series with a data processor, equipped with three columns (Waters Ultrahydrogel Linier, 500 and 250), using Dulbecco's Phosphate Buffered Saline with 0.02 wt % sodium azide as an eluent at flow rate 1.0 mL/min, with detection by a refractive index (RI) detector. Pullulan standards (PSS-Polymer Standards Service—USA Inc., Amherst, Mass.) were used for calibration. Matrix-Assisted Laser Desorption Ionization Time-of-Flight Spectrometry (MALDI-ToF MS) was performed with a Perseptive Biosystems Voyager Elite MALDI-TOF spectrometer. Dynamic Light Scattering (DLS) data were collected on a Malvern Zetasizer nano-ZS. The concentration of the sample solution was kept at 1.0 mg/mL. The hydrodynamic diameter of samples was measured three times (5 run to each measurement, reported as number distribution) in 0.1 M sodium phosphate, pH 8. Biotin and bio-PEG binding kinetics were measured using a stopped-flow spectrometer with fluorescence detection (Applied Photophysics SX20). […] The excitation wavelength was set to 295 nm and emission wavelength was monitored at 340 nm. […] Fluorescence was measured in volts.

[2] = biological target: T1, native avidin (Gallus gallus, UniProt P02701); experiment: Tryptophan fluorescence quenching assay; type: binding; settings: native avidin 5 μM; added at 20 μM-5.12 mM
T1 construct: Avidin is a tetrameric protein purified from egg white; purchased Lee Biosolutions; host or cells: egg white
Method: Tryptophan fluorescence quenching assay: Intrinsic tryptophan fluorescence intensity of native avidin (180 μL, final concentration 5 μM) was measured at an excitation wavelength of 270 nm and emission of 300-400 nm in a 96-well plate. N-2-bromo-2-methylpropanoyl-β-alanine (free initiator) (20 μL, final concentrations 20 μM, 80 μM, 320 μM, 1.28 mM, 5.12 mM) or N-2-methylpropanoyl-β-alanine (free initiation inhibitor) (20 μL, final concentrations 20 μM, 80 μM, 320 μM, 1.28 mM, 5.12 mM) were added to native avidin and tryptophan fluorescence was measured again.

[3] = biological target: T1, native avidin; experiment: Biotin effect on quenched fluorescence; type: binding; settings: native avidin 5 μM; free initiator or free initiation inhibitor 5.12 mM; biotin 10 μM
Method: Biotin effect on quenched fluorescence: […] Free initiator (10 μL, final concentrations 5.12 mM) or free initiation inhibitor (10 μL, final concentrations 5.12 mM) were added to avidin solution and florescence intensities were measured. After the fluorescence intensities were recorded with free initiator or free initiation inhibitor, biotin (10 μL, final concentration 10 μM) was added to the mixture and fluorescence intensities were measured again.

[4] = Stopped-flow binding kinetics of biotin to avidin and avidin-pCBMA conjugates; settings: kobs first-order, avidin 0.5 μM, biotin 5.0 μM, 0.1 M phosphate buffer pH 8
Method: (§1) Biotin and biotin PEG binding kinetics: Kinetic measurements of avidin-pCBMA conjugates with biotin and biotin-PEG substrates were taken using a stopped-flow spectrometer with fluorescence detection (Applied Photophysics SX20). The dead time of the instrument was 2 ms. The excitation wavelength was 270 nm with 5 nm bandwidth. Instrument permitted to collect 1000 data points throughput the reaction (0.1-450 s). For all experiments avidin concentration was 0.5 μM (final) and biotin or biotin-PEG concentration was 5.0 μM (final). Reactions were initiated by mixing equal volumes of avidin with its substrates in 0.1 M phosphate buffer, pH 8. Fluorescence was measured in volts. Data were fit to single exponential functions using F(t)=F∞·ΔFexp(−kobst) equation, where, kobs is the observed first-order rate constant, F∞ is the final value of fluorescence and ΔF is the amplitude. In case of native avidin kinetics the data were fit to single exponential functions using F(t)=F∞+ΔFexp(−kobst) equation, where, kobs is the observed first-order rate constant, F∞ is the final value of fluorescence and ΔF is the amplitude. […]
(§2) Instrumentation and Sample Analysis Preparations: ^1H and ^13C NMR were recorded on a spectrometer (300 MHz, 75 MHz, Bruker Avance™ 300), with deuterium oxide (D2O), DMSO-d6, and CDCl3. […] Melting points (mp) were measured with a Laboratory Devices Mel-Temp. […]

[5] = biological target: T2, Biotin-aprotinin (Bos taurus, UniProt P00974); experiment: Stopped-flow biotin-protein binding kinetics, biotin-aprotinin; settings: avidin 0.5 μM, biotin-protein 5.0 μM, 0.1 M phosphate buffer pH 8
T2 construct: purchased Sigma Aldrich
Method: (§3) The solution was stirred at 4° C. for 2 hours and protein-biotin conjugates were purified by dialysis using 15 kDa molecular mass cutoff dialysis tube in deionized water and then lyophilized.
(§4) Biotin-Protein binding kinetics: For biotinylated protein binding kinetics avidin conjugates (0.5 μM final) were mixed with biotin-protein (5.0 μM final) in a stopped-flow accessory on PTI QuantaMaster-400 fluorometer (Horiba Instruments Inc.). The dead time of the instrument was 60 ms. The excitation wavelength was 295 nm (to selectively excite tryptophan residues) with a 20 nm bandwidth (Skelly et al., FEBS Lett 262:127-130, 1990). Excitation occurred through a 1.96-mm path in the stopped-flow optical cell, and emission was measured through a 7.68-mm path. […]
(§5) Instrumentation and Sample Analysis Preparations: ^1H and ^13C NMR were recorded on a spectrometer (300 MHz, 75 MHz, Bruker Avance™ 300), with deuterium oxide (D2O), DMSO-d6, and CDCl3. […] Melting points (mp) were measured with a Laboratory Devices Mel-Temp. […] The hydrodynamic diameter of samples was measured three times (5 run to each measurement, reported as number distribution) in 0.1 M sodium phosphate, pH 8. Biotin and bio-PEG binding kinetics were measured using a stopped-flow spectrometer with fluorescence detection (Applied Photophysics SX20). […] The excitation wavelength was set to 295 nm and emission wavelength was monitored at 340 nm. […]

[6] = tested on: Biotin-HRP; experiment: Stopped-flow biotin-protein binding kinetics, biotin-HRP; settings: avidin 0.5 μM, biotin-protein 5.0 μM, 0.1 M phosphate buffer pH 8
Method: as §3, §4, §5

[7] = Stopped-flow biotin-PEG binding kinetics, 550 Da; settings: for Biotin-PEG 550 Da k/s^−1: avidin 0.5 μM, biotin-PEG 5.0 μM, 0.1 M phosphate buffer pH 8
Method: Biotin and biotin PEG binding kinetics: Kinetic measurements of avidin-pCBMA conjugates with biotin and biotin-PEG substrates were taken using a stopped-flow spectrometer with fluorescence detection (Applied Photophysics SX20). The dead time of the instrument was 2 ms. The excitation wavelength was 270 nm with 5 nm bandwidth. Instrument permitted to collect 1000 data points throughput the reaction (0.1-450 s). For all experiments avidin concentration was 0.5 μM (final) and biotin or biotin-PEG concentration was 5.0 μM (final). Reactions were initiated by mixing equal volumes of avidin with its substrates in 0.1 M phosphate buffer, pH 8. Fluorescence was measured in volts. Data were fit to single exponential functions using F(t)=F∞·ΔFexp(−kobst) equation, where, kobs is the observed first-order rate constant, F∞ is the final value of fluorescence and ΔF is the amplitude. In case of native avidin kinetics the data were fit to single exponential functions using F(t)=F∞+ΔFexp(−kobst) equation, where, kobs is the observed first-order rate constant, F∞ is the final value of fluorescence and ΔF is the amplitude. All data analysis was performed in Microsoft Excel.
Instrumentation and Sample Analysis Preparations: ^1H and ^13C NMR were recorded on a spectrometer (300 MHz, 75 MHz, Bruker Avance™ 300), with deuterium oxide (D2O), DMSO-d6, and CDCl3. Routine FT-IR spectra were obtained with a Nicolet Magna-IR 560 spectrometer (Thermo). UV-VIS spectra were obtained and used for protein concentration determination using a UV-VIS spectrometer (Lambda 2, PerkinElmer). Melting points (mp) were measured with a Laboratory Devices Mel-Temp. […] The hydrodynamic diameter of samples was measured three times (5 run to each measurement, reported as number distribution) in 0.1 M sodium phosphate, pH 8. Biotin and bio-PEG binding kinetics were measured using a stopped-flow spectrometer with fluorescence detection (Applied Photophysics SX20). […] The excitation wavelength was set to 295 nm and emission wavelength was monitored at 340 nm. […] Fluorescence was measured in volts.

[8] = Stopped-flow biotin-PEG binding kinetics, 5 kDa; settings: avidin 0.5 μM, biotin-PEG 5.0 μM, 0.1 M phosphate buffer pH 8
Method: as §1, §2

[9] = Stopped-flow biotin-PEG binding kinetics, 10 kDa; settings: avidin 0.5 μM, biotin-PEG 5.0 μM, 0.1 M phosphate buffer pH 8
Method: as §1, §2

[10] = Stopped-flow biotin-PEG binding kinetics, 30 kDa; settings: avidin 0.5 μM, biotin-PEG 5.0 μM, 0.1 M phosphate buffer pH 8
Method: as §1, §2

[11] = work described elsewhere (Kurzban et al.); 337 to 324 nm, blue shift in emission; cited from earlier work
[12] = Table 4, low-density avidin conjugates
[13] = Table 9, high-density avidin conjugates

Compound: Aprotinin [reference compound]
- Dh (hydrodynamic size) ([1]; bio-pro substrates, Table 3): 2.4 ± 0.4
- substrate size (Dh) ([1]; listed as biotin-aprotinin): 2.4±0.4 nm
- substrate size (Dh) ([1]; listed as biotinylated aprotinin): 2.4 nm

Compound: CC(C)C(=O)NCCC(=O)O [free initiation inhibitor, N-2-methylpropanoyl-β-alanine]
- quenching of native avidin tryptophan fluorescence [2]: None of the tested concentrations of initiation inhibitor had an effect on fluorescence
- effect on tryptophan fluorescence of native avidin incubated with free initiator or free initiation inhibitor [3]: did not have effect on fluorescence

Compound: O=C(O)CCCC[C@@H]1SC[C@@H]2NC(=O)N[C@@H]21 [biotin]
- effect on tryptophan fluorescence of native avidin incubated with free initiator or free initiation inhibitor [3]: restored the quenched tryptophan fluorescence

Compound: Native avidin
- Biotin k/s^−1 [4, 12]: 105.21 s⁻¹
- Biotin k/s^−1 [4, 13]: 105.21 s⁻¹
- Biotin-aprotinin k/s^−1 [5, 12]: 73.45 s⁻¹
- Biotin-aprotinin k/s^−1 [5, 13]: 73.45 s⁻¹
- Biotin-HRP k/s^−1 [6, 12]: 5.03 s⁻¹
- Biotin-HRP k/s^−1 [6, 13]: 5.03 s⁻¹
- Biotin-PEG 550 Da k/s^−1 [7, 12]: 20.93 s⁻¹
- Biotin-PEG 550 Da k/s^−1 [7, 13]: 20.93 s⁻¹
- binding rate of biotin-PEG 550 Da, slower than biotin ([7]; relative to biotin binding rate): 80%
- Biotin-PEG 5 kDa k/s^−1 [8, 12]: 17.02 s⁻¹
- Biotin-PEG 5 kDa k/s^−1 [8, 13]: 17.02 s⁻¹
- Biotin-PEG 10 kDa k/s^−1 [9, 12]: 12.02 s⁻¹
- Biotin-PEG 10 kDa k/s^−1 [9, 13]: 12.02 s⁻¹
- Biotin-PEG 30 kDa k/s^−1 [10, 12]: 5.89 s⁻¹
- Biotin-PEG 30 kDa k/s^−1 [10, 13]: 5.89 s⁻¹
- intrinsic tryptophan fluorescence of avidin upon biotin binding [11]: decreased

Compound: CC(C)(Br)C(=O)NCCC(=O)O [free initiator, N-2-bromo-2-methylpropanoyl-β-alanine]
- quenching of native avidin tryptophan fluorescence [2]: higher degree of fluorescence quenching
